Test results from paper PMC11302339, “A series of pyrimidine-based antifungals with anti-mold activity disrupt ER function in Aspergillus fumigatus” (Microbiology Spectrum, 2024).
In brackets after ≈: the same amount, converted by molar mass. Marks after values point to notes of the source that are not given here.

Columns and labels:
[1] = Protein binding analysis, brain; type: in vitro ADME
A. niger = assay: MIC testing (CLSI broth dilution); type: cell-based, Aspergillus niger; settings: strain S007, clinical isolate; no clear well, growth reduced by ≥50% at MEC
Method: (§1) MICs were determined using Clinical and Laboratory Standards Institute guidelines ([48], [49]). All yeasts were cultured overnight in 3 mL YPD at 30°C, then washed twice in sterile phosphate-buffered saline (PBS). Twofold serial dilutions of each drug were prepared in RMPI + MOPS, then 1 × 10^3 cells were added per well. For mold species, wells were inoculated with 1.25 × 10^3 conidia per well. Plates were incubated at 37°C for 24 (Candida spp. and S. cerevisiae), 48 (Aspergillus spp., M. circinelloides, S. apiospermum, and L. prolificans), or 72 (C. neoformans and F. oxysporum) hours. S. cerevisiae BY4743 MICs were tested in YPD due to nutritional requirements of this strain. Each assay was performed in technical duplicate in at least two independent experiments performed on different days.

A. fumigatus = assay: MIC testing in the presence of 10% serum; type: cell-based, Aspergillus fumigatus
Method: as §1

[2] = system: S. cerevisiae heterozygous mutants; assay: Chemical haploinsufficiency screen and spot dilution validation; type: cell-based, Saccharomyces cerevisiae; settings: YPD 32 µg/mL 1, relative to WT
Method: Chemical genetics screening was performed using the Saccharomyces heterozygous deletion collection (Transomic Technologies, TKY3504). Mutant strains were grown overnight in 200 µL YPD in a 96-well plate then pinned into 25 µL PBS using a 96-floating pin multiblot replicator (V&P Scientific Inc, Cat # 408FP6) and library copier (V&P Scientific Inc, Cat # 381). Cell dilutions were then pinned onto an Omni Tray (Nunc, Cat # 242811) single-well plate containing YPD with DMSO or 32 µg/mL 1 for a total of 384 spots per plate. Each plate contained at least one wild type control. Plates were incubated at 30°C and imaged every 24 hours for 4 days. Hits were called by visual evaluation. To validate hits and score growth phenotypes, serial dilutions of OD = 1.0, 0.1, 0.01, and 0.001 were prepared for each mutant from a 200 µL YPD overnight culture in a 96-well plate. Three microliters of each dilution was spotted on YPD containing DMSO or 32 µg /mL 1 and incubated for 72 hours at 30°C. The growth of each mutant on 1 was scored compared to wild-type controls as no inhibition (++++), modest (+++), or severe (+/++) growth inhibition.

A. terreus = assay: MIC testing (CLSI broth dilution); type: cell-based, Aspergillus terreus
Method: as §1

[3] = system: Saccharomyces cerevisiae BY4741; assay: Generation of resistant isolates (serial passaging); type: cell-based; settings: from 1/4 MIC, twofold increases, at least 50 generations
Method: Finally, we attempted to generate resistant isolates to understand the rate of resistance and potentially uncover mechanism of action. First, to determine spontaneous rates, we performed high-density plating (~2 × 10^9 cells) of C. neoformans on YPD plates containing 64 µg/mL 1 ([24]). […] Next, we employed serial passaging of both C. neoformans H99 and Saccharomyces cerevisiae BY4741 to evaluate evolved resistance upon exposure to sub-MIC concentrations. Yeast cells were grown in a 96-well format in the presence of 1/4 MIC 1, then cultures were passaged to fresh media containing a twofold increase in drug concentration. At each passage, the inoculum was diluted ~1:100 to allow ~10 generations of growth for a total of at least 50 generations over the course of the experiment.

C. auris = assay: MIC testing (CLSI broth dilution); type: cell-based, Candida auris; settings: Candidozyma auris, CLSI conditions
Method: as §1

[4] = system: A. fumigatus CEA10 hyphae; assay: Propidium iodide viability staining of treated hyphae; type: cell-based, Aspergillus fumigatus
Method: For PI staining of 1-treated hyphae, 0.5 × 10^3conidia/mL in 100 µL RPMI + MOPS were inoculated into chambers of an eight-well chamber slide and incubated at 37°C for 14 hours. 100 µL of media containing a 2× concentration of 1 or an equivalent amount of DMSO was added to each chamber, and slides were incubated for an additional 24 hours. Media were removed from chambers, replaced with PBS + 40 µM propidium iodide (Invitrogen, Cat # P3566), then slides were incubated at room temperature for 20 min in the dark. Images were acquired on a Nikon epifluorescence microscope with a Nikon DS-Fi1 camera and Nikon Elements image acquisition and analysis software. Images were processed equally with linear brightness and contrast adjustments in Photoshop, only to increase ease of viewing. Representative images of two independent experiments are shown with two biological replicates each.

[5] = system: S. cerevisiae heterozygous mutants; assay: Chemical haploinsufficiency screen and spot dilution validation; type: cell-based; settings: Saccharomyces cerevisiae, read-out: inhibition of wild-type growth
[6] = Protein binding analysis, plasma; type: in vitro ADME; settings: mouse, mouse plasma diluted 1:10 with PBS
[7] = read-out: Corrected % Protein binding (converted)

Question: Which fraction unbound at 6 h, 5 µM [1, 7] does the source give for `OC1CC(c2cc(N3CCC(CCc4ccccc4)CC3)ncn2)C1` (stereo not drawn) [compound 1] here?
Answer: 0.0112

Question: And the fraction unbound ([1]; uncorrected)?
Answer: 0.1

Question: What about the “Minimum effective concentration (MEC)” value (A. niger) of the same compound?
Answer: 16^b µg/mL

Question: And the “increase in MIC in the presence of 10% serum” value (A. fumigatus; A. fumigatus)?
Answer: 2 fold

Question: What about the MIC (A. fumigatus; Aspergillus fumigatus, read-out: MIC w/serum) of the same compound?
Answer: 32 µg/mL

Question: And the Growth ([2]; mutant YDR361C BCP1)?
Answer: +++

Question: What about the Growth ([2]; mutant YDR362C TFC6) of the same compound?
Answer: +++

Question: What about the Growth ([2]; mutant YDR373W FRQ1) of the same compound?
Answer: +++

Question: What about the Growth ([2]; mutant YDR416W SYF1) of the same compound?
Answer: +++

Question: What about the Growth ([2]; mutant YER012W PRE1) of the same compound?
Answer: +++

Question: What about the Growth ([2]; mutant YFR051C RET2) of the same compound?
Answer: +++

Question: And the Growth ([2]; mutant YGL047W ALG14)?
Answer: ++

Question: And the Growth ([2]; mutant YGL116W CDC20)?
Answer: +++

Question: And the Growth ([2]; mutant YGR190C Dubious_HIP1 overlap)?
Answer: +++

Question: What about the Growth ([2]; mutant YGR191W HIP1) of the same compound?
Answer: +++

Question: What about the Growth ([2]; mutant YGR216C GPI1) of the same compound?
Answer: +++

Question: What about the Growth ([2]; mutant YHR062C RPP1) of the same compound?
Answer: +++

Question: What about the Growth ([2]; mutant YHR068W DYS1) of the same compound?
Answer: ++

Question: And the Growth ([2]; mutant YHR072W ERG7)?
Answer: +++

Question: And the Growth ([2]; mutant YHR107C CDC12)?
Answer: +++

Question: And the Growth ([2]; mutant YHR122W CIA2)?
Answer: +++

Question: What about the Growth ([2]; mutant YHR143W-A RPC10) of the same compound?
Answer: ++

Question: What about the Growth ([2]; mutant YIL033C BCY1) of the same compound?
Answer: +++

Question: And the Growth ([2]; mutant YIL104C SHQ1)?
Answer: +++

Question: What about the Growth ([2]; mutant YIL109C SEC24) of the same compound?
Answer: +++

Question: What about the Growth ([2]; mutant YIL144W NDC80) of the same compound?
Answer: +++

Question: What about the Growth ([2]; mutant YIL147C SLN1) of the same compound?
Answer: +++

Question: And the Growth ([2]; mutant YIL150C MCM10)?
Answer: +++

Question: And the Growth ([2]; mutant YIL171W)?
Answer: ++

Question: What about the Growth ([2]; mutant YIR012W SQT1) of the same compound?
Answer: +++

Question: And the Growth ([2]; mutant YKL049C CSE4)?
Answer: +++

Question: What about the Growth ([2]; mutant YKL108W SLD2) of the same compound?
Answer: ++

Question: And the Growth ([2]; mutant YKL154W SRP102)?
Answer: ++

Question: What about the Growth ([2]; mutant YKL180W RPL17A) of the same compound?
Answer: ++

Question: What about the Growth ([2]; mutant YKL189W HYM1) of the same compound?
Answer: ++

Question: And the Growth ([2]; mutant YML085C TUB1)?
Answer: +

Question: And the Growth ([2]; mutant YMR185W RTP1)?
Answer: +++

Question: What about the Growth ([2]; mutant YMR277W FCP1) of the same compound?
Answer: +++

Question: And the Growth ([2]; mutant YMR314W PRE5)?
Answer: +++

Question: What about the Growth ([2]; mutant YNL287W SEC21) of the same compound?
Answer: +++

Question: What about the Growth ([2]; mutant YPL131W RPL5) of the same compound?
Answer: +++

Question: What about the Growth ([2]; mutant YPL142C (no gene name)) of the same compound?
Answer: +

Question: What about the Growth ([2]; mutant YPL143W RPL33A) of the same compound?
Answer: +

Question: And the Growth ([2]; mutant YPL235W RVB2)?
Answer: +

Question: And the Growth ([2]; mutant YPL237W SUI3)?
Answer: +

Question: And the Growth ([2]; mutant YPR035W GLN1)?
Answer: +++

Question: What about the Growth ([2]; mutant YPR136C Dubious_RRP9 overlap) of the same compound?
Answer: ++

Question: And the Growth ([2]; mutant YPR181C SEC23)?
Answer: +

Question: What about the Growth ([2]; mutant YPR187W RPO26) of the same compound?
Answer: +

Question: What about the MIC (A. terreus; Aspergillus terreus, strain S010, clinical isolate, CLSI conditions) of the same compound?
Answer: 8 µg/mL (≈ 23.7 µM)

Question: What about the “Minimum effective concentration (MEC)” value (A. terreus; strain S023, clinical isolate, no clear well, growth reduced by ≥50% at MEC) of the same compound?
Answer: 16^b µg/mL

Question: What about the “evolved resistance, serial passaging” value [3] of the same compound?
Answer: did not recover stable resistance

Question: And the MIC (C. auris; strain 0390)?
Answer: > 128 µg/mL

Question: And the MIC (C. auris; strain 3081, drug-resistant clinical isolate)?
Answer: 8 µg/mL (≈ 23.7 µM)

Question: And the “propidium iodide staining of hyphae” value ([4]; 8 µg/mL for 24 hours after 14 hours germination)?
Answer: did not show increased staining relative to vehicle-treated controls

Question: What about the “propidium iodide staining of hyphae” value ([4]; 32 µg/mL for 24 hours after 14 hours germination) of the same compound?
Answer: stained brightly

Question: And the “type of activity against biofilms” value ([4]; at concentrations 2× the MIC)?
Answer: fungicidal

Question: And the inhibition at 32 µg/mL [5]?
Answer: ~50%

Question: And the fraction unbound at 6 h, 5 µM [6, 7]?
Answer: 0.0285

Question: What about the fraction unbound at 6 h, 5 µM ([6]; uncorrected (plasma diluted 1:10), read-out: % Protein binding (converted)) of the same compound?
Answer: 0.227
